Data on two compounds can be found in US8076094B2, “Phosphorylation of histone H3 at threonine 11—a novel epigenetic mark for transcriptional regulation” (Universitaetsklinixum Freiburg, priority 2007, dated 2011).

“Also recorded” adds a separate entry of the source.

In data set [1] the test system is endogenous PRK1 and AR in LNCaP cells. As to the kind of experiment: Western blot analysis of knockdown in LNCaP cells. In kind it is cell-based. From the text: (§1) To initiate our study, we analysed the effect of PRK1 knockdown on the expression of endogenous AR target genes.
To determine whether PRK1 controls phosphorylation of H3T11 at promoters of AR-regulated genes in vivo, LNCaP cells were first transfected with either an unrelated control siRNA or a siRNA directed against PRK1, in the presence or absence of R1881, and then subjected to ChIP. Addition of ligand results in phosphorylation of H3T11 at the AREs of the PSA and KLK2 promoters (FIG. 2d, left panel). Androgen-induced phosphorylation at H3T11 is PRK1-dependent since it is blocked by knockdown of PRK1. […] To corroborate that androgen-induced phosphorylation of H3T11 is executed by PRK1, LNCaP cells were cultivated in the presence or absence of Ro318220 and subjected to ChIP.
Experiments were performed as described^2. Western blots were decorated as indicated.

Data set [2] concerns PSA and KLK2 promoters in LNCaP cells. As to the kind of experiment: Chromatin immunoprecipitation (ChIP) at AREs of PSA and KLK2 promoters in LNCaP cells. The data set is classed as cell-based. The conditions noted are these: for ligand-induced phosphorylation of H3T11 at AREs of PSA and KLK2 promoters: 1×10^−8 M R1881 45 min, FIG. 2d, e; for S5-P CTD pol II at the promoters of PSA and KLK2 / recruitment of RNA polymerase II (α-NTD pol II): Ro318220 1×10^−5 M, FIG. 3f, g. The protocol: Chromatin Immunoprecipitation ChIP and Re-ChIP experiments were performed as described^5,9. LNCaP cells were cultured for 45 min (FIGS. 1c, 2d, 2e) or 210 min (FIG. 3a, b, f, g) in the presence or absence of 1×10^−8 M R1881 as indicated. Ro318220 (1×10^−5 M) was added to the LNCaP cells (FIG. 3b, g) 60 min before addition of R1881. Three days before harvesting, LNCaP cells were transfected with stealth RNAi (ctr: 5′-[…]-3′ (Sequence Protocol: 5) (SEQ ID NO: 5); PRK1: 5′-[…]-3′ (Sequence Protocol: 6) (SEQ ID NO: 6); Invitrogen) following the manufacturer's instructions. Immunoprecipitation was performed with specific antibodies (α-monoMeH3K9, α-diMeH3K9, α-triMeH3K9, α-acetyl-H3K9/K14, α-H3, α-AR (Upstate Biotechnology), α-S5-P CTD pol II, α-phosphoH3T11 (Abcam), α-NTD pol II (N-20, Santa Cruz), α-LSD1^5, α-JMJD2C^4, and α-PRK1) on protein A-Sepharose 4B (GE-Healthcare). For PCR, 1-5 μl out of 50 μl DNA extract was used. PCR primers for ARE I+II (PSA-459/-121), ARE III (PSA-4288/-3922), KLK2 (−343/-90), GAPDH, and U6 were described previously^5. Western Blot Analysis

Data set [3] concerns AR-dependent reporters in LNCaP cells. As to the kind of experiment: AR-dependent reporter (luciferase) assay in LNCaP cells. In kind it is cell-based. The conditions noted are these: R1881, FIG. 5a, b. The protocol: CV1 and LNCaP cells were cultured and transfected as described^2. The following amounts were transfected per well: 500 ng of MMTV-LUC, Probasin-LUC, or PSA-LUC; 25 ng of AR expression plasmid; 200 ng (FIG. 3e) or 400 ng (FIG. 3c, d) expression plasmids of LSD1 or JMJD2C, 150 ng PRK1 K644E, 1000 ng expression plasmid of miRNA-control, miRNA1-PRK1, or miRNA2-PRK1 (FIG. 5a). Cells were cultivated for 18 hours in the presence or absence of 1×10^−10 M R1881 (Sigma), 2.5×10^−6 M (FIG. 3d) or 4.5×10^−6 M (FIG. 3c) Ro318220 (Roche) as indicated. Luciferase activity was assayed as described^2. All experiments were repeated at least four times in duplicate.

The subject of data set [4] is androgen-induced expression of endogenous AR target genes PSA and KLK2 in LNCaP cells. As to the kind of experiment: Quantitative RT-PCR of endogenous AR target genes in LNCaP cells. The data set is classed as cell-based. As to conditions: presence or absence of R1881, FIG. 1a, b. The protocol:
as §1
Quantitative RT-PCR and statistical analysis were performed as described^5. The primers for GAPDH, PSA, and KLK2 were described previously^5.

Another data set has as its system PRK1. As to the kind of experiment: In vitro kinase assay. The data set is classed as biochemical. The protocol:
To understand how association of PRK1 and AR with chromatin results in increased gene expression, we tested whether PRK1 directly phosphorylates the N-terminal tail of histone H3. Myc-PRK1 and the flag-tagged kinase dead mutant PRK1 K644E^2 were immunoprecipitated from 293 cell lysates with an α-myc or an α-flag antibody, respectively (FIG. 6a, b), and incubated with bacterially expressed and purified GST-H3 1-44 or GST control protein. GST-H3 1-44 is phosphorylated by PRK1, but not by PRK1 K644E (FIG. 2a).
In addition, we incubated nucleosomes purified from HeLa cells with recombinant PRK1 in the presence or absence of Ro318220. […] This phosphorylation is blocked by Ro318220 (FIG. 2c).
The kinase assays were performed as described^11. 10 μg GST-tagged H3 proteins or 1 μg of nucleosomes purified from HeLa cells^12 were incubated with immunoprecipitated PRK1 proteins (FIG. 2a) or 1 μg purified recombinant PRK1 (FIG. 2b, c; ProQinase GmbH) for 0 to 10 min (FIG. 2c) or 20 min (FIG. 2a, b) at 30° C. in kinase buffer containing 20 mM Tris-HCl pH 7.5, 20 μM ATP, 8 mM MgCl2, and 5 μCi (γ-^32P) ATP. The reaction mixture was analysed by SDS-PAGE followed by autoradiography or Western blotting using antibodies as indicated.

[5] abbreviates: R1881 210 min, Ro318220 1×10^−5 M 60 min before R1881, stealth RNAi three days before harvesting, FIG. 3a, b.

On to “5′-GAAAGUCCUAGAUCCACACGCAAAU-3′ (siRNA; Stealth RNAi from Invitrogen, chemistry not given here) [siRNA directed against PRK1]”, for which, in data set [1] (FIG. 1a, 2d right panels), the “down-regulation of endogenous PRK1” value was “depletion is specific”. In addition, the “levels of endogenous AR” value in data set [1] (FIG. 2d right panel) is listed as “does not affect”. Further, the “ligand-induced phosphorylation of H3T11 at AREs of PSA and KLK2 promoters” value in data set [2] was “blocked”. Besides, in data set [2] (setting [5]), the “ligand-induced acetylation of H3K9/K14” value is “blocked”; the “ligand-induced demethylation of tri-, di-, and monomethyl H3K9” value is listed as “severely impaired”. Moreover, in data set [2] (R1881 210 min), the “S5-P CTD pol II at the promoters of PSA and KLK2” value is reported as “loss”; the “recruitment of RNA polymerase II (α-NTD pol II)” value is given as “not affected”.
As for `Cn1cc(C2=C(c3cn(CCCSC(=N)N)c4ccccc34)C(=O)NC2=O)c2ccccc21` [Ro318220], the “ligand-induced expression of AR-dependent reporters” value in data set [3] was “severely reduce; also recorded: strong decrease”. Moreover, in data set [4], the “androgen-induced expression of endogenous AR target genes (PSA, KLK2)” value is “reduce expression; also recorded: severely impedes”. Further, the “phosphorylation of GST-H3 1-44 by PRK1” value with PRK1 (immunoprecipitated Myc-PRK1, 20 min at 30° C., FIG. 2a) is reported as “completely blocks”. In addition, the “phosphorylation of nucleosomes at H3T11 by PRK1” value in the data set on PRK1 (nucleosomes from HeLa cells, recombinant PRK1, 0 to 10 min, Western blot α-phosphoH3T11, FIG. 2c) was “blocked”. Moreover, the “ligand-induced phosphorylation of H3T11 at AREs of PSA and KLK2 promoters” value in data set [2] is recorded as “efficiently blocks”. The “ligand-induced demethylation of tri-, di-, and monomethyl H3K9” value in data set [2] (setting [5]) was “loss”. Besides, in data set [2] (R1881 210 min), the “S5-P CTD pol II at the promoters of PSA and KLK2” value is reported as “loss”; the “recruitment of RNA polymerase II (α-NTD pol II)” value is recorded as “not affected”.
